Reference: PubChem BioAssay AID1645864 (Buhrlage Lab, Dana-Farber Cancer Institute and Novartis …, 2021)
Calls of active or inactive are those of the source.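 How the source made its calls: active means maximal inhibition of USP17 at or above 30% in the confirmation dose-response, a value not among the printed readouts; inactive means the rest.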

biological target: Ubiquitin carboxyl-terminal hydrolase 17-like protein 5 (Homo sapiens) (UniProt A8MUK1); experiment: ubiquitin-specific protease 17 inhibitors, concentration series, biochemical, verification of primary actives (AID 1645864); conditions: purified USP17, ubiquitin-rhodamine cleavage fluorescence, 3 h
Sequence (A8MUK1 whole entry, looked up): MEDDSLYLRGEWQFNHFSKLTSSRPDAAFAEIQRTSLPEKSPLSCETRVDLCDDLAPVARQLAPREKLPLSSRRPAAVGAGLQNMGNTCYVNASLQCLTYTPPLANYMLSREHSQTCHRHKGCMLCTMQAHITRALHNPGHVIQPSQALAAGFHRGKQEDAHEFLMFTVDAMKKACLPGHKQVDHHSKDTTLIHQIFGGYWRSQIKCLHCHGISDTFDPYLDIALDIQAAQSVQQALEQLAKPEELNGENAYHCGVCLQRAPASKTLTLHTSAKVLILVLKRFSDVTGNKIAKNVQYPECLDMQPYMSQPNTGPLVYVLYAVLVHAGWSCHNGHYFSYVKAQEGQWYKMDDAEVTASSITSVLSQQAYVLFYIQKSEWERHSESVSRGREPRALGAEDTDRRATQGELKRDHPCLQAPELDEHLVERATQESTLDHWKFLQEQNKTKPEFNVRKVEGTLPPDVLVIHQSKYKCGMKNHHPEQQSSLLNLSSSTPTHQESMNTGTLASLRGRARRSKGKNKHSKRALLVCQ

| SMILES | IC50 |
| --- | --- |
| CCn1cc2c(n1)c(=O)n(Cc1ccccc1)c(=O)n2CC(=O)Nc1ccc(OC)cc1 | 2.91 µM |
| O=C(Nc1cccc(Br)c1)c1cc(-c2cccnc2)n[nH]1 | 4.2 µM |
| CC(=O)c1cccc(NC(=O)c2ccc(-c3csc(C)n3)cc2)c1 | > 50 µM (inactive) |
| CCC(C)c1ccc(-c2csc(Cn3c(CN4CCN(C)CC4)nc4ccccc4c3=O)n2)cc1 (centres undefined) | 3.29 µM |
| CCc1ccccc1NC(=O)c1cc(-c2ccccn2)n[nH]1 | 31 µM |
| Cc1ccc(C(=O)c2cn(CC(=O)Nc3ccccc3)c3ccc(C)cc3c2=O)cc1 | 10.9 µM |
| Cc1cc(NC(=O)c2[nH]nc3c2CCc2ccccc2-3)no1 | 3.28 µM |
| Cc1cccc(NC(=O)Cn2c(-c3cnccn3)nc(C)c(C)c2=O)c1C | > 50 µM (inactive) |
| COc1ccccc1NC(=O)Nc1ccc(NC(=O)c2ccccc2O)cc1 | 47.5 µM |
| COc1ccc(CNC(=O)C(C)n2nc(-c3ccco3)c(-c3cc(C)no3)cc2=O)cc1 (centres undefined) | 25.1 µM |
| O=C(COc1ccc2c(-c3ccccc3)cc(=O)oc2c1)Nc1cccnc1 | 1.7 µM |
| Cc1cc2nc(/C=C/c3ccccc3)n(Cc3cccc(F)c3)c2cc1C | > 50 µM (inactive) |
| CCN(c1ccc(NC(=O)CSc2nnc(-c3ccccc3)n2-c2ccc(OC)c(OC)c2)cc1)C(C)C | 5.06 µM |
| Cc1cccc(N2C(=O)/C(=C\c3ccc4c(c3)OCCO4)c3ccccc3C2=O)c1 | 23.6 µM |
| Cc1ccc(C(=O)N2CCCC3(C2)Nc2cccnc2NC3=NC2CCCC2)s1 (centres undefined) | > 50 µM (inactive) |
| Cc1cnc(CN2CCCC(c3ccc4cn[nH]c4n3)C2)cn1 (centres undefined) | > 50 µM (inactive) |
| Cc1nc2sc(C(=O)Nc3ccccc3Br)c(N)c2c(C)c1C | 1.12 µM |
| O=C(Nc1ccccc1)c1cn(-c2cc(N3CCCC3)ncn2)cn1 | > 50 µM (inactive) |
| COc1ccccc1-c1nc2c3c(C)c(C)n(-c4ccc(Br)cn4)c3ncn2n1 | 0.567 µM |

| SMILES | IC50 |
| --- | --- |
| COC1=CC(=O)c2c(O)c3c(c(C)c2C1=O)C[C@@]1(O)[C@H](O[C@H]2CC[C@H](O[C@H]4C[C@@](C)(O)[C@H](OC(=O)c5c(C)ccc(C)c5O)[C@H](C)O4)[C@@H](C)O2)C(=O)C(C(C)=O)=C(O)[C@@]1(O)C3=O | 1.34 µM |
| O=C(Cn1c(=O)c2sccc2n(Cc2ccc([N+](=O)[O-])cc2)c1=O)NCCc1ccccc1 | 26.8 µM |
| O=C(COc1ccc2c(c1)CCC2)Nc1ccc2c(c1)CCC2 | 19.1 µM |
| Cc1cc(C)nc(-n2nc(C)c3c2NC(=O)CSC3c2ccc(F)cc2F)n1 (centres undefined) | 37.5 µM |
| CCC(C)NC(=O)Cn1c(=O)n(-c2ccccc2)c(=O)c2ccc(C(=O)NCc3ccco3)cc21 (centres undefined) | 45 µM |
| COc1ccc(-c2nc(-c3nnn(Cc4ccc(F)cc4)c3C)no2)c(OC)c1 | 6.53 µM |
| Cc1nn(-c2nc3ccccc3[nH]2)c2c1C(c1cccs1)CC(=O)N2 (centres undefined) | > 50 µM (inactive) |
| COc1ccc(OC)c(NC(=O)Cn2c(=O)n(CC3CCC(C(=O)NCCc4ccccc4)CC3)c(=O)c3ccccc32)c1 (centres undefined) | 0.262 µM |
| O=c1ccc(-c2noc(Cc3cccc(Cl)c3)n2)c[nH]1 | > 50 µM (inactive) |
| O=C(Nc1cccc(Cl)c1)N1CCN(c2cc(C(F)(F)F)ccn2)CC1 | 12.3 µM |
| Cc1ccc(O)c(-c2cc(C(=O)Nc3ccccc3Cl)[nH]n2)c1 | 8.32 µM |
| O=C(CSc1nnc2n1CCCCC2)Nc1ccc2[nH]c(=O)[nH]c2c1 | 12 µM |
| Clc1ccccc1CSc1nnc(C2CCCCC2)n1Cc1ccccc1 | 40.8 µM |
| CCc1ccc(-n2nc(C)c3c2NC(=O)CC3C(=O)c2ccc3c(c2)OCCO3)cc1 (centres undefined) | 27.5 µM |
| CC(=O)N1Cc2ccccc2CC2(CCCN(CC3CCOCC3)C2)C1 (centres undefined) | > 50 µM (inactive) |
| COc1ccc(-c2[nH]c3ccccc3c2SCCNC(=O)c2ccc(S(=O)(=O)N3CCOCC3)cc2)cc1 | 37.4 µM |
| COc1ccc(Cl)cc1NC(=O)c1cc(-c2ccccn2)n[nH]1 | 0.202 µM |
| Cc1ccc(-n2c(-c3ccccc3)cn3c4c(=O)[nH]c(=O)n(C)c4nc23)cc1C | 0.289 µM |
| Cc1cccc(COc2ccc(C3SCC(=O)Nc4n[nH]c(C)c43)cc2)c1 (centres undefined) | 20.6 µM |

| SMILES | IC50 |
| --- | --- |
| Cc1cccc(-c2nc3n(CC(=O)Nc4ccc(Cl)cc4)c(C)cc(=O)n3n2)c1 | 0.335 µM |
| CN(C)CCc1cc2c(c3c1ccc1ccccc13)OCO2 | > 50 µM (inactive) |
| Fc1cccc(Cn2cc(-c3noc(-c4cccnc4)n3)nn2)c1 | 38.3 µM |
| O=C(Nc1ccc2c(c1)OCCO2)c1ccc(N2CCCCC2)nn1 | > 50 µM (inactive) |
| Cc1ccc(-c2ncc(C(=O)NCc3cccc(C)c3)c(-c3ccncc3)n2)cc1 | > 50 µM (inactive) |
| COc1ccc(C)cc1NC(=O)C1CC(=O)Nc2nc3ccccc3n21 (centres undefined) | 33.9 µM |
| COc1ccc(-c2cc(N3CCC(NC(=O)c4ccccc4)C3)n[nH]2)cc1 (centres undefined) | 20.8 µM |
| O=C(NCCCN1CCc2ccccc2C1)c1cc2c(s1)CS(=O)(=O)C2 | > 5 µM (inactive) |
| COc1ccc(NC(=O)c2nnn(-c3ccccc3)c2C)cc1OC | > 50 µM (inactive) |
| O=C(COc1ncnc2ccccc12)Nc1ccc2c(c1)OC1(CCCC1)O2 | 35.2 µM |
| Cc1c(C)n(-c2ccccc2)c2ncn(CC(=O)NCCCc3ccccc3)c(=O)c12 | 34.4 µM |
| CC(C)c1ccc(C(C(=O)NC2CCCCC2)N(C(=O)c2cnccn2)c2cccc(F)c2)cc1 (centres undefined) | 27.2 µM |
| c1csc(CCN2CCc3nc4cccnc4cc3C2)c1 | > 50 µM (inactive) |
| COc1cccc2c1OCC(NS(=O)(=O)c1cc(C)ccc1C)C2 (centres undefined) | > 50 µM (inactive) |
| Cc1cc(NC(=O)c2cc(-c3cccnc3)n[nH]2)ccc1Br | 1.95 µM |
| O=C(Nc1cccc2ccccc12)C1CCCN(S(=O)(=O)Cc2ccccc2)C1 (centres undefined) | 8.53 µM |
| COc1cccc2c1NC(=O)C21CCN(C(=O)Nc2cccc3ccccc23)CC1 | > 50 µM (inactive) |
| O=C1CC(NS(=O)(=O)c2ccc3ccccc3c2)CN1c1cccc(F)c1 (centres undefined) | 47.6 µM |
| Cc1cc(C)nc(-n2nc(C)c3c2NC(=O)CSC3c2ccccc2F)n1 (centres undefined) | 43 µM |

Continued, values first:

| IC50 | SMILES |
| --- | --- |
| 20.2 µM | CCc1ccc(NC(=O)Cc2nnc3cc(-c4nc(C)no4)ccn23)cc1 |
| > 50 µM (inactive) | COc1ccc(-c2cc3nc(C)cc(Nc4ccc(F)cc4)n3n2)cc1OC |
| > 50 µM (inactive) | Nc1c(C(=O)c2cccs2)oc2nc(-c3ccccc3)cc(-c3ccco3)c12 |
| > 50 µM (inactive) | O=C(C1CCCN(S(=O)(=O)N2CCCCCC2)C1)N1CCN(c2ccccc2)CC1 (centres undefined) |
| 4.12 µM | O=C(CSc1nnc(-c2ccncc2)n1Cc1ccccc1)c1ccc2[nH]c(O)cc2c1 |
| > 50 µM (inactive) | COc1ccccc1-c1ccc(SCC(=O)Nc2ccc3c(c2)OCCO3)nn1 |
| > 50 µM (inactive) | COCC(C)Nc1ncc(-c2cnccn2)c(-c2ccc(C)s2)n1 (centres undefined) |
| 1.8 µM | Cn1c(=O)sc2cc(NC(=O)c3ccc(Br)cc3)ccc21 |
| > 50 µM (inactive) | O=S(=O)(c1ccccc1)N1CCN2Cc3ccccc3N(Cc3ccccc3)CC2C1 (centres undefined) |
| > 50 µM (inactive) | Cc1ccc2c(c1)-c1c(c(C(=O)N3CCN(c4ccccc4)CC3)nn1C)CS2 |
| 10.7 µM | COc1ccc(Nc2nc(C(=O)NCc3ccc4c(c3)OCO4)cc3occc23)cc1 |
| 2.7 µM | O=C(Nc1nc2c(ccc3ccccc32)s1)c1cccc(Br)c1 |
| > 50 µM (inactive) | COc1ccc(CCC(=O)Nc2ccc3c(c2)Sc2ncccc2C(=O)N3C)cc1 |
| 39.8 µM | Cc1nn(-c2cccc(F)c2)c2c1C(C(=O)c1ccc(Cl)s1)CC(=O)N2 (centres undefined) |
| > 50 µM (inactive) | Cc1c(C(=O)Nc2ccc(-c3nnc4n3CCCCC4)cc2)oc2c1ccc1ccccc12 |
| > 50 µM (inactive) | O=C(c1ccsc1)N1CCC2(C1)Nc1cccnc1NC2=NC1CCCC1 (centres undefined) |
| > 50 µM (inactive) | O=c1cc(CNc2ccc(Br)cc2)nc2nc(-c3ccccc3)[nH]n12 |
| > 50 µM (inactive) | O=c1[nH]c(-c2ccccn2)nc2c1CCN(Cc1cnn(-c3ccccc3)c1)C2 |
| 39.5 µM | Cn1c(=O)c(C(=O)CN2CCN(c3ccc(O)cc3)CC2)c(N)n(Cc2ccccc2)c1=O |
| > 50 µM (inactive) | Cc1ccc(C)c(CSC2=NCCN2C(=O)c2ccco2)c1 |
| 2.34 µM | COc1cccc(NC(=O)c2cnc3c(c2)c(=O)n(C)c(=O)n3C)c1 |

| IC50 | SMILES |
| --- | --- |
| 18.8 µM | O=C(NCc1ccc(-c2nc3cnccc3o2)cc1)c1ccccc1F |
| 4.83 µM | COc1cccc(NC(=O)Cn2c(COc3ccccc3)nc3ccccc32)c1 |
| 1.49 µM | Cc1ccc(CNC(=O)Cn2cnc3c(cnn3-c3cccc(Cl)c3)c2=O)cc1 |
| 44.9 µM | O=C(O)c1ccc(C2Cc3c([nH]c(=O)[nH]c3=O)O2)cc1 (centres undefined) |
| 2.5 µM | O=C(NCc1ccccc1Cl)c1ccc(-c2nnc(-c3ccccc3)o2)cc1 |
| 17.9 µM | Cc1ccc(S(=O)(=O)N2CCC3(CC2)NC(=O)c2ccccc2N3)c(C)c1 |
| > 50 µM (inactive) | O=C(Nc1cc(Cl)ccc1-n1cncn1)c1ccc(S(=O)(=O)N2CCCC2)cc1 |
| 25.3 µM | COc1ccc(N(CC(=O)Nc2cccc(F)c2)S(=O)(=O)c2ccc(OC)c(OC)c2)cc1 |
| > 50 µM (inactive) | COc1ccc(S(=O)(=O)N(C)Cc2cccs2)cc1OC |
| > 50 µM (inactive) | O=C(Nc1nc2c(s1)COCC2)c1cc(-c2ccco2)[nH]n1 |
| 24.2 µM | CC(=O)Nc1ccc(S(=O)(=O)Nc2ccc(Nc3ccc(-n4cccn4)nn3)cc2)cc1 |
| > 50 µM (inactive) | Cc1ccc(C(=O)Nc2ccc3c(c2)C(=O)N(C)c2ccccc2O3)cc1C |
| 26.8 µM | Cc1cc(=O)n(CC(=O)Nc2ccccc2C)c(Nc2ccc(F)cc2)n1 |
| > 50 µM (inactive) | O=C(CN(Cc1ccc(Cl)cc1)S(=O)(=O)c1ccc(Cl)cc1)N1CCOCC1 |
| 2.36 µM | COC(=O)c1ccc2c(=O)n(CCCCCC(=O)NCc3cccc(Cl)c3)c(=O)[nH]c2c1 |
| 0.167 µM | COc1cccc(C(=O)Oc2ccc3c(=O)c(-c4ccc(OC)c(OC)c4)coc3c2)c1 |
| > 50 µM (inactive) | COc1ccccc1-c1ccc(CN2[C@@H](c3ccccc3)C[C@@H]3NC(=O)CCC[C@H]32)cc1 |
| > 50 µM (inactive) | Cc1ccccc1Cn1ccc2ccn(Cc3cccnc3)c2c1=O |
| > 50 µM (inactive) | O=C(COC(=O)c1ccc2ncsc2c1)Nc1ccccc1F |
| > 50 µM (inactive) | Clc1ccc(C[n+]2cc(-c3ccc(Cl)cc3)n3c2CCC3)cc1 |
| 15.4 µM | O=C(NCCc1ccco1)c1ccc(N2CCOc3ccccc32)s1 |
